The values below come from article PMC6212767 (2018).

In experiment [1] the test system is poly[d(A-T)2] (DNA, polymer) AT. Put plainly: circular dichroism. As to conditions: 25 mM NaCl; 10 mM phosphate, pH 7.0; ~100 μM bp DNA; minor groove. (In general: Circular dichroism is widely used to follow secondary structure.)
The subject of experiment [2] is poly[d(G-C)2] (DNA, polymer) GC. Description: UV melting, 260 nm. Conditions: per base.
The test system is the same in experiment [3]. Put plainly: circular dichroism. As to conditions: 25 mM NaCl; 10 mM phosphate, pH 7.0; ~100 μM bp DNA; intercalation.
For experiment [4] the test system is unchanged. Put plainly: ethidium bromide displacement fluorescence. As to conditions: apparent, per base pair, ethidium displaced, buffer as in cited literature.
For experiment [5], the system named is poly[d(A-T)2] (DNA, polymer) AT. Put plainly: ethidium bromide displacement fluorescence. Conditions: apparent; per base pair; ethidium displaced; slightly lower than with poly[d(G-C)2].

Regarding `Cn1cc(NC(=O)c2cc(NC(=O)CN=C(N)N)cn2C)cc1C(=O)NCCC(=N)N`, the binding result in experiment [1] was “yes”.
Turning to `CN(C)c1ccc(C(=C2C=CC(=[N+](C)C)C=C2)c2ccc([N+](C)(C)C)cc2)cc1`, the ΔTm entry in experiment [2] (compound ratio for methyl green not stated in material) was “+5.2 °C”.
On to `CC[n+]1c(-c2ccccc2)c2cc(N)ccc2c2ccc(N)cc21`, for which the binding entry in experiment [3] was “yes”.
Take `[Cl-].[Cl-].[Cl-].[Cl-].[Cu+2].[Cu+2].c1ccc(CN(Cc2ccc3ccc(CN(Cc4ccccn4)Cc4ccccn4)cc3c2)Cc2ccccn2)nc1`: in experiment [2] (r = 0.1, biphasic, first derivative transition d1, second transition d2 -1.5 ± 1.2 °C), the ΔTm was -18.5 ± 1.2 °C. Further, the Kapp in experiment [4] was ~ 1 × 10^7 M(bp)^−1. For the same compound, the binding entry in experiment [5] is “yes”.

Usually ΔTm stands for the shift of the melting midpoint relative to a reference.
